The species entered for assay [1] is Homo sapiens. As to the kind of experiment: Binding affinity to MHC class II HLA-DQ2.5 in Epstein-Barr virus-transformed human B lymphocyte.
The species entered for assay [2] is Homo sapiens. As to the kind of experiment: Ratio of IC50 of peptide P198 for human MHC class II HLA-DQ2.5 to IC50 of peptide for human MHC class II HLA-DQ2.5.

The values below come from ChEMBL document CHEMBL1765021, “Assessing high affinity binding to HLA-DQ2.5 by a novel peptide library based approach” (Bioorg Med Chem, 2011).

Activity calls are given as the source filed them. The rule behind the calls is not given here. Peptide text beside a SMILES is read from it.

Regarding `CC(C)C[C@H](NC(=O)[C@H](C)NC(=O)[C@H](C)NC(=O)[C@@H](N)Cc1ccccc1)C(=O)N[C@@H](CCCCN)C(=O)N[C@@H](CCC(=O)O)C(=O)N[C@@H](CCC(=O)O)C(=O)N[C@@H](CCC(=O)O)C(=O)N[C@@H](Cc1ccc(O)cc1)C(=O)N[C@@H](CCCNC(=N)N)C(=O)O` (H-FAALKEEEYR-OH), the result in the assay filed under Homo sapiens [1] was Active. For `CC(C)C[C@H](NC(=O)[C@H](CCC(=O)O)NC(=O)[C@H](CCC(=O)O)NC(=O)[C@H](CCC(=O)O)NC(=O)[C@H](CCCCN)NC(=O)[C@H](CCC(=O)O)NC(=O)[C@H](C)NC(=O)[C@H](C)NC(=O)[C@@H](N)Cc1ccccc1)C(=O)N[C@@H](CCCNC(=N)N)C(=O)O` (H-FAAEKEEELR-OH), the Ratio IC50 in the assay listed under Homo sapiens [2] is 0.93. Further, in the assay filed under Homo sapiens [1], the outcome was Active. As to `CC(C)[C@H](NC(=O)[C@H](CCCCN)NC(=O)[C@H](CCC(=O)O)NC(=O)[C@H](C)NC(=O)[C@H](C)NC(=O)[C@@H](N)Cc1ccccc1)C(=O)N[C@@H](CCC(=O)O)C(=O)N[C@@H](CCC(=O)O)C(=O)N[C@@H](Cc1ccccc1)C(=O)N[C@@H](CCCNC(=N)N)C(=O)O` (H-FAAEKVEEFR-OH), the result in the assay listed under Homo sapiens [1] was Active.
